Reference: the supplement of paper PMC10307832

Experiments:
Assay in all cases: relative viability (nuclei count vs DMSO), 5 days (fraction); higher = more cells survive
Entinostat + Foretinib = compound: Nc1ccccc1NC(=O)c1ccc(CNC(=O)OCc2cccnc2)cc1 [Entinostat] + COc1cc2c(Oc3ccc(NC(=O)C4(C(=O)Nc5ccc(F)cc5)CC4)cc3F)ccnc2cc1OCCCN1CCOCC1 [Foretinib] (partner 0.25 µM)
Method in brief: (§1)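 Lung cancer cell lines in 1536-well plates were dosed by pin tool the day after seeding, either with one drug alone or with a fixed anchor-drug dose plus five library-drug doses (not always all listed) in √10 steps. After 5 days, cells were fixed and their nuclei stained in one step (final 0.05% Triton X-100, 1% formaldehyde, 1 ug/ml Hoechst), then counted on 4× images. Relative viability is the nuclei count in treated wells divided by that in vehicle wells. Values are medians of duplicate plates.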

SGI-1776 + Navitoclax = compound: CN1CCC(CNc2ccc3ncc(-c4cccc(OC(F)(F)F)c4)n3n2)CC1 [SGI-1776] + CC1(C)CCC(c2ccc(Cl)cc2)=C(CN2CCN(c3ccc(C(=O)NS(=O)(=O)c4ccc(N[C@H](CCN5CCOCC5)CSc5ccccc5)c(S(=O)(=O)C(F)(F)F)c4)cc3)CC2)C1 [Navitoclax] (partner 0.5 µM)
Method in brief: as §1

[1] = compound: C1COCCN1C2=NC(=NC3=C2OC4=C3C=CC=N4)C5=CC(=CC=C5)NC(=O)C6=CN=C(C=C6)N + C[C@]1(O)C[C@@H](c2nc(-c3ccc4ccc(-c5ccccc5)nc4c3)c3c(N)nccn32)C1 [Linsitinib] (partner 1 µM)
Method in brief: as §1

Entinostat + Alpelisib = compound: Nc1ccccc1NC(=O)c1ccc(CNC(=O)OCc2cccnc2)cc1 [Entinostat] + Cc1nc(NC(=O)N2CCC[C@H]2C(N)=O)sc1-c1ccnc(C(C)(C)C(F)(F)F)c1 [Alpelisib] (partner 2 µM)
Method in brief: as §1

Cell Line	relative viability (Entinostat + Foretinib; first compound 0.02 µM)	relative viability (Entinostat + Foretinib; first compound 0.06325 µM)	relative viability (Entinostat + Foretinib; first compound 0.2 µM)	relative viability (Entinostat + Foretinib; first compound 0.6325 µM)	relative viability (Entinostat + Foretinib; first compound 2 µM)	relative viability (SGI-1776 + Navitoclax; first compound 0.08 µM)	relative viability (SGI-1776 + Navitoclax; first compound 0.8 µM)	relative viability (SGI-1776 + Navitoclax; first compound 2.53 µM)	relative viability (SGI-1776 + Navitoclax; first compound 8 µM)	relative viability ([1]; first compound 0.02 µM)	relative viability ([1]; first compound 0.06325 µM)	relative viability ([1]; first compound 0.2 µM)	relative viability ([1]; first compound 0.6325 µM)	relative viability ([1]; first compound 2 µM)	relative viability (Entinostat + Alpelisib; first compound 0.02 µM)	relative viability (Entinostat + Alpelisib; first compound 0.06325 µM)	relative viability (Entinostat + Alpelisib; first compound 0.2 µM)	relative viability (Entinostat + Alpelisib; first compound 0.6325 µM)	relative viability (Entinostat + Alpelisib; first compound 2 µM)
NCI-H2342	1.04	1.22	0.947	0.924	0.787	–	–	–	–	–	–	–	–	–	–	–	–	–	–
NCI-H1623	0.862	0.84	0.766	0.512	0.375	–	–	–	–	–	–	–	–	–	–	–	–	–	–
SW 1573	0.966	0.927	0.877	0.917	0.7	1.1	0.862	1.15	0.719	0.75	0.743	0.824	0.756	0.544	0.672	0.665	1.04	0.819	0.83
NCI-H2087	1.18	1.04	0.89	0.352	0.256	0.963	1.04	1.04	0.861	0.988	0.883	0.985	0.969	0.573	0.983	0.954	0.806	0.64	0.54
NCI-H520	0.686	0.941	0.803	0.683	0.626	1.14	1.25	1.13	1.08	1.09	1.08	1.07	1.08	0.373	0.836	0.848	0.963	0.764	0.451
Calu-6	0.889	0.849	0.873	0.565	0.513	0.922	0.909	0.856	0.626	0.943	1.14	0.975	0.9	0.527	1.01	1.06	0.941	0.624	0.457
SK-LU-1	0.865	0.847	0.836	0.589	0.447	1.27	1.35	1.01	0.468	1.23	1.13	1.02	1.18	0.574	0.954	0.962	0.943	0.555	0.458
LCLC-97TM1	1.05	0.934	1	0.995	0.844	0.533	0.528	0.314	0.355	–	0.199	0.174	0.232	0.22	0.262	0.224	0.245	0.225	0.156
HCC-15	0.984	0.886	0.802	0.592	0.331	0.707	0.728	0.599	0.475	0.871	0.926	0.813	0.832	0.634	0.86	0.919	0.705	0.488	0.243
H3255	0.889	0.89	0.639	0.567	0.381	0.525	0.46	0.543	0.193	0.908	1.09	1.04	0.949	0.702	0.637	0.594	0.548	0.363	0.289
NCI-H1650	1.08	1.06	1.11	0.681	0.57	1.22	1.21	0.981	0.762	–	–	–	–	–	–	–	–	–	–
HCC-44	–	–	–	–	–	0.935	0.909	1.08	0.928	0.616	0.846	0.711	0.606	0.331	0.778	0.588	0.46	0.329	0.187
NCI-H650	1.16	0.933	1.04	0.839	0.477	–	–	–	–	0.876	0.876	0.857	0.837	0.659	1.18	1.13	1.03	0.763	0.339
NCI-H661	0.929	0.963	0.923	0.697	0.575	–	–	–	–	0.533	0.645	0.645	0.421	0.386	0.733	0.735	0.68	0.856	0.683
NCI-H358	0.755	0.81	0.66	0.41	0.124	–	–	–	–	0.671	0.827	0.674	0.721	0.584	0.807	0.962	0.965	0.551	0.284
ChaGo-K-1	1.06	0.914	0.893	0.842	0.673	0.849	1.23	0.624	0.716	–	–	–	–	–	–	–	–	–	–
NCI-H1792	–	–	–	–	–	0.614	0.72	0.654	0.479	0.608	0.508	0.565	0.257	0.468	0.752	0.673	0.543	0.381	0.223
LCLC-103H	0.802	0.66	0.612	0.666	0.384	–	–	–	–	1.05	1.15	1.21	1.03	0.978	1.04	1.09	0.894	0.783	0.571
NCI-H1563	0.543	0.918	0.823	0.77	0.609	–	–	–	–	1.22	1.32	1.22	0.901	0.884	0.908	0.883	0.826	0.807	0.636
ABC-1	1.05	1.19	0.906	0.805	0.545	–	–	–	–	0.724	0.93	0.713	0.635	0.538	0.949	1.14	0.966	0.661	0.48
NCI-H2170	0.978	1.05	0.964	0.597	0.613	0.561	0.678	0.581	0.56	–	–	–	–	–	0.77	0.747	0.771	0.521	0.345
